The values below come from article PMC11044166, “Synthesis, DFT Calculations, In Silico Studies, and Antimicrobial Evaluation of Benzimidazole-Thiadiazole Derivatives” (ACS Omega, 2024).

Values after ≈ are worked out from the molar mass of the structure shown. Where two headings read alike, the source gives them in different places.

The test system of data set [1] is C. albicans (ATCC 24433). Briefly: Antifungal microdilution MIC. Format: cell-based. The conditions noted are these: Candida albicans, ATCC24433. The procedure: (§1) The antifungal and antibacterial activities of the synthesized compounds (5a–i) were evaluated in vitro against E. coli (ATCC 25922), S. marcescens (ATCC 8100), K. pneumoniae (ATCC 13883), P. aeruginosa (ATCC 27853), E. faecalis (ATCC 2942), B. subtilis, S. aureus (ATCC 29213), S. epidermidis (ATCC 12228), C. albicans (ATCC 24433), C. krusei (ATCC 6258), and C. parapsilosis (ATCC 22019). The final synthesized compounds were evaluated as antibacterial and antifungal references, in comparison to azithromycin, voriconazole, and fluconazole. Tables 1 and 2 provide a summary of the antimicrobial activity test results and the minimum inhibitory concentrations (MICs) of the compounds (5a–i).
(§2) The antimicrobial activity of the final compounds (5a–i) was screened against eight species of pathogenic bacteria and […] (E. coli (ATCC 25922), S. marcescens (ATCC 8100), K. pneumonia (ATCC 13883), P. aeruginosa (ATCC 27853), E. faecalis (ATCC 2942), B. subtilis (NRRL NRS 744), S. aureus (ATCC 29213), S. epidermidis (ATCC 12228), C. albicans (ATCC 24433), C. glabrata (ATCC 90030), C. krusei (ATCC 6258), and C. parapsilosis (ATCC 22 019)) according to the microdilution standard methods CLSI M07-A9 (2012) and NCCLS M27-A2 (2002), as described in the previous study.[25],[26]

Data set [2] relates to C. krusei (ATCC 6258). Briefly: Antifungal microdilution MIC. In kind it is cell-based. The following applies: Pichia kudriavzevii, ATCC6258. The procedure: as §1, §2
For data set [3], the system named is C. parapsilosis (ATCC 22019). The data set can be described thus: Antifungal microdilution MIC. Format: cell-based. The conditions noted are these: Lodderomyces parapsilosis, ATCC22019. The procedure:
as §1, §2
For orientation: Dilution methods test growth across graded concentrations, often in twofold steps.

The subject of data set [4] is B. subtilis. Briefly: Antibacterial microdilution MIC. Format: cell-based. The conditions noted are these: Bacillus subtilis. The procedure: as §1, §2
Data set [5] concerns E. coli (ATCC 25922). Briefly: Antibacterial microdilution MIC. The following applies: Escherichia coli, ATCC25922. Format: cell-based. The procedure: as §1, §2
For data set [6], the system named is E. faecalis (ATCC 2942). Briefly: Antibacterial microdilution MIC. Format: cell-based. The conditions noted are these: Enterococcus faecalis, ATCC2942. The procedure: as §1, §2
The test system of data set [7] is K. pneumoniae (ATCC 13883). The data set can be described thus: Antibacterial microdilution MIC. In kind it is cell-based. The following applies: Klebsiella pneumoniae, ATCC13883. The procedure:
as §1, §2

Data set [8] deals with P. aeruginosa (ATCC 27853). The data set can be described thus: Antibacterial microdilution MIC. In kind it is cell-based. The following applies: Pseudomonas aeruginosa, ATCC27853. The procedure:
as §1, §2

For data set [9], the system named is S. aureus (ATCC 29213). Briefly: Antibacterial microdilution MIC. In kind it is cell-based. The following applies: Staphylococcus aureus, ATCC29213. The procedure:
as §1, §2

Data set [10] concerns S. epidermidis (ATCC 12228). Briefly: Antibacterial microdilution MIC. The following applies: Staphylococcus epidermidis, ATCC12228. Format: cell-based. The procedure:
as §1, §2

Data set [11] concerns S. marcescens (ATCC 8100). The data set can be described thus: Antibacterial microdilution MIC. In kind it is cell-based. The following applies: Serratia marcescens, ATCC8100. The procedure: as §1, §2
The subject of data set [12] is L929 fibroblast cell line. Briefly: Cytotoxicity MTT assay on healthy cells. In kind it is cell-based. The conditions noted are these: L929 healthy mouse fibroblast cells. As for the experimental part: The effect of the compounds between 5a–i on the viability of the L929 cell line was analyzed by MTT assay. The MTT method was performed as previously described.[27]
A general note: Tetrazolium dyes change colour on reduction, which living cells bring about.

The mark [13] stands for this setting: C. albicans (ATCC 24433), read-out: MIC.
Setting [14] is: C. krusei (ATCC 6258), read-out: MIC.
Where [15] appears, read: C. parapsilosis (ATCC 22019), read-out: MIC.
Setting [16] is: F: B. subtilis, Gram-positive, read-out: MIC.
[17] abbreviates: A: E. coli (ATCC 25922), Gram-negative, read-out: MIC.
The mark [18] stands for this setting: E: E. faecalis (ATCC 2942), Gram-positive, read-out: MIC.
The mark [19] stands for this setting: C: K. pneumoniae (ATCC 13883), Gram-negative, read-out: MIC.
Setting [20] is: D: P. aeruginosa (ATCC 27853), Gram-negative, read-out: MIC.
Setting [21] is: G: S. aureus (ATCC 29213), Gram-positive, read-out: MIC.
[22] abbreviates: H: S. epidermidis (ATCC 12228), Gram-positive, read-out: MIC.
Where [23] appears, read: B: S. marcescens (ATCC 8100), Gram-negative, read-out: MIC.

On to `c1ccc2[nH]c(-c3ccc(-c4nnc(NC5CCCCC5)s4)cc3)nc2c1` [Compound 5e, N-Cyclohexyl-5-(4-(1H-Benzo[d]imidazole-2-Yl)phenyl)-1,3,4-Thiadiazole-2-Amine], for which the melting point amounted to 276.5 °C. Further, the MIC in data set [1] (setting [13]) came out at 7.81 µg/mL (≈ 20.8 µM). In addition, the MIC in [2] (setting [14]) is 125 µg/mL (≈ 333 µM). For the same compound, in [3] (setting [15]), the MIC is 125 µg/mL (≈ 333 µM). The MIC in [4] (setting [16]) amounted to 250 µg/mL (≈ 666 µM). Moreover, the MIC in data set [5] (setting [17]) turned out to be 125 µg/mL (≈ 333 µM). In data set [6] (setting [18]), the MIC stood at 15.6 µg/mL (≈ 41.6 µM). In addition, the MIC in data set [7] (setting [19]) is 125 µg/mL (≈ 333 µM). In data set [8] (setting [20]), the MIC amounted to 125 µg/mL (≈ 333 µM). For the same compound, the MIC in data set [9] (setting [21]) is 125 µg/mL (≈ 333 µM). The MIC in [10] (setting [22]) was found to be 7.81 µg/mL (≈ 20.8 µM). Moreover, in data set [11] (setting [23]), the MIC was determined as 125 µg/mL (≈ 333 µM). The compound further showed an IC50 in data set [12] of 102 ± 12 µM.

`COc1ccc(Nc2nnc(-c3ccc(-c4nc5ccccc5[nH]4)cc3)s2)cc1` [Compound 5h, N-(4-Methoxyphenyl)-5-(4-(1H-Benzo[d]imidazole-2-Yl)phenyl)-1,3,4-Thiadiazole-2-Amine]: the melting point amounted to 276.7 °C. In [1] (setting [13]), the MIC came to 3.9 µg/mL (≈ 9.76 µM). The MIC in [2] (setting [14]) was found to be 125 µg/mL (≈ 313 µM). Further, the MIC in data set [3] (setting [15]) came to 125 µg/mL (≈ 313 µM). For the same compound, in data set [4] (setting [16]), the MIC stood at 125 µg/mL (≈ 313 µM). In addition, in data set [5] (setting [17]), the MIC turned out to be 31.2 µg/mL (≈ 78.2 µM). Moreover, the MIC in [6] (setting [18]) was found to be 3.9 µg/mL (≈ 9.76 µM). The minimum inhibitory concentration (MIC) in data set [7] (setting [19]) worked out at 62.5 µg/mL (≈ 156 µM). Further, the MIC in data set [8] (setting [20]) was 31.2 µg/mL (≈ 78.2 µM). In addition, the MIC in data set [9] (setting [21]) came out at 31.2 µg/mL (≈ 78.2 µM). For the same compound, in data set [10] (setting [22]), the MIC was determined as 31.2 µg/mL (≈ 78.2 µM). Besides, the MIC in data set [11] (setting [23]) came out at 62.5 µg/mL (≈ 156 µM). This compound gave an IC50 in data set [12] of 76 ± 9.4 µM.

As to `Clc1ccccc1Nc1nnc(-c2ccc(-c3nc4ccccc4[nH]3)cc2)s1` [Compound 5d, N-(2-Chlorophenyl)-5-(4-(1H-Benzo[d]imidazole-2-Yl)phenyl)-1,3,4-Thiadiazole-2-Amine], the melting point was found to be 294.8 °C. For the same compound, the MIC in data set [1] (setting [13]) was determined as 7.81 µg/mL (≈ 19.3 µM). Further, the MIC in data set [2] (setting [14]) was determined as 125 µg/mL (≈ 309 µM). For the same compound, the MIC in data set [3] (setting [15]) turned out to be 125 µg/mL (≈ 309 µM). Also, the MIC in [4] (setting [16]) is 125 µg/mL (≈ 309 µM). The MIC in data set [5] (setting [17]) amounted to 125 µg/mL (≈ 309 µM). For the same compound, the minimal inhibitory concentration (MIC) in data set [6] (setting [18]) was determined as 7.81 µg/mL (≈ 19.3 µM). Also, the MIC in data set [7] (setting [19]) worked out at 125 µg/mL (≈ 309 µM). Further, the MIC in data set [8] (setting [20]) came out at 125 µg/mL (≈ 309 µM). Moreover, in [9] (setting [21]), the MIC worked out at 7.81 µg/mL (≈ 19.3 µM). Further, the MIC in [10] (setting [22]) turned out to be 31.2 µg/mL (≈ 77.4 µM). Further, in data set [11] (setting [23]), the MIC stood at 62.5 µg/mL (≈ 155 µM). In data set [12], this compound displayed an IC50 of 197 ± 14.7 µM.

With `OC(Cn1cncn1)(Cn1cncn1)c1ccc(F)cc1F` [fluconazole, reference compound], the MIC in data set [1] (setting [13]), in data set [2] (setting [14]) and in [3] (setting [15]) was 7.81 µg/mL (≈ 25.5 µM) in each case.

`CC(C)CNc1nnc(-c2ccc(-c3nc4ccccc4[nH]3)cc2)s1` [Compound 5i, N-Isobutyl-5-(4-(1H-Benzo[d]imidazole-2-Yl)phenyl)-1,3,4-Thiadiazole-2-Amine] gave a melting point of 315.6 °C. The MIC in data set [1] (setting [13]) is 31.2 µg/mL (≈ 89.4 µM). In addition, the MIC in data set [2] (setting [14]) was found to be 125 µg/mL (≈ 358 µM). Further, the MIC in data set [3] (setting [15]) turned out to be 125 µg/mL (≈ 358 µM). In data set [4] (setting [16]), the MIC was 125 µg/mL (≈ 358 µM). Besides, the MIC in data set [5] (setting [17]) was 125 µg/mL (≈ 358 µM). Besides, the MIC in data set [6] (setting [18]) turned out to be 15.6 µg/mL (≈ 44.7 µM). The MIC in [7] (setting [19]) was 62.5 µg/mL (≈ 179 µM). Moreover, the MIC in data set [8] (setting [20]) amounted to 31.2 µg/mL (≈ 89.4 µM). Further, the MIC in data set [9] (setting [21]) was 62.5 µg/mL (≈ 179 µM). The MIC in [10] (setting [22]) is 62.5 µg/mL (≈ 179 µM). In addition, the MIC in [11] (setting [23]) worked out at 62.5 µg/mL (≈ 179 µM).

`ClCCNc1nnc(-c2ccc(-c3nc4ccccc4[nH]3)cc2)s1` [Compound 5c, N-(2-Chloroethyl)-5-(4-(1H-Benzo[d]imidazole-2-Yl)phenyl)-1,3,4-Thiadiazole-2-Amine] registered a melting point of 191.2 °C. For the same compound, the MIC in data set [1] was found to be 31.2 µg/mL (≈ 87.8 µM). In [2], this compound yielded an MIC of 125 µg/mL (≈ 351 µM). The compound also yielded an MIC in data set [3] of 125 µg/mL (≈ 351 µM). Inhibition of growth in [4] (MIC) required 62.5 µg/mL (≈ 176 µM). The same compound showed an MIC in data set [5] of 62.5 µg/mL (≈ 176 µM). Also, the MIC in data set [6] amounted to 15.6 µg/mL (≈ 43.9 µM). Further, the MIC in data set [7] came to 62.5 µg/mL (≈ 176 µM). In [8], this compound showed an MIC of 125 µg/mL (≈ 351 µM). In addition, in data set [9], the MIC came out at 31.2 µg/mL (≈ 87.8 µM). The same compound yielded an MIC in data set [10] of 31.2 µg/mL (≈ 87.8 µM). This compound registered an MIC in data set [11] of 62.5 µg/mL (≈ 176 µM).

A word on the MIC: it is the lowest concentration that inhibits growth of the organism. The IC50 is the point on the concentration scale where inhibition reaches its midpoint. Read a high IC50 as weaker potency in that assay. What is called melting point is the temperature of the solid-liquid transition.
